The results in this text go back to patent US20220144812A1, “QUINOLINE DERIVATIVES AND THEIR USE FOR THE TREATMENT OF CANCER” (Epizyme, Inc., priority 2019, published 2022).

Usually IC50 stands for the point on the concentration scale where inhibition reaches its midpoint.

Like-named read-outs stand apart in the source and are kept apart here.

One assay deals with T1, CREBBP (1084-1701) (Homo sapiens, UniProt Q92793).
T1 construct: measured in the following biochemical assay using CREBBP (1084-1701); purchased
T1 sequence (Q92793 1084-1701): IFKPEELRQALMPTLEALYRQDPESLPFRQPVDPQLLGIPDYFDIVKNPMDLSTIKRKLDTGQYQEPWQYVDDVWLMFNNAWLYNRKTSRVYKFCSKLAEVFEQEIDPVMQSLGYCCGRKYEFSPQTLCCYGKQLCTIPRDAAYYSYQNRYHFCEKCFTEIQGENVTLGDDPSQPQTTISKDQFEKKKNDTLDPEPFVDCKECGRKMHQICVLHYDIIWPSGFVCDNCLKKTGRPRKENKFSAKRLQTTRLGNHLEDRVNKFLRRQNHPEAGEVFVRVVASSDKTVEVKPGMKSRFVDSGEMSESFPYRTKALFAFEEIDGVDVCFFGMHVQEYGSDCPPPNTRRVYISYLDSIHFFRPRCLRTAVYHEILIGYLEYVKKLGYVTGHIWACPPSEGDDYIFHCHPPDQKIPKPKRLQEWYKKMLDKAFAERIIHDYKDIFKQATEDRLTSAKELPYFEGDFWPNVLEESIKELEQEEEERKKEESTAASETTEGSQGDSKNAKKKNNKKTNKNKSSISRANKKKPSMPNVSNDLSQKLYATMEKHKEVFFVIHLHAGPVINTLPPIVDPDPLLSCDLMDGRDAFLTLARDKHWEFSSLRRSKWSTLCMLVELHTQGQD
Put plainly: Biochemical assay for CREBBP (1084-1701), SAMDI. The following applies: SAMDI, read-out: CREBBP Biochemistry IC50. The procedure, abridged: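 Acetyltransferase activity measured by SAMDI mass spectrometry after capture on biochip. Enzyme sat with compound 30 min at RT before acetyl-CoA and biotinylated H3 11-25 (K14R, K23R) peptide were added for 30 min at RT. Formic acid quench, bicarbonate neutralisation; IC50 values reported.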

Another assay has as its system 647V cells. Put plainly: High throughput proliferation (HTP) assay. In kind it is cell-based. The following applies: high throughput proliferation, read-out: CREBBP HTP IC50. From the text:
The following example describes methods and materials relating to a high throughput proliferation (HTP) assay. IC50 values (micromolar) are summarized in Table 1, Table 2, and Table 3 under the column labeled: “CREBBP HTP IC50 (micromolar).”
MATERIALS: 647V cell line, Dulbecco's MEM, penicillin-streptomycin, heat inactivated fetal bovine serum, D-PBS, and CellTiter-Glo were commercially available.
647V adherent cells were maintained in complete growth medium (Dulbecco's MEM supplemented with 15% v/v heat inactivated fetal bovine serum) and cultured at 37° C. under 5% CO2.
METHOD: Measurement of the effect of compound in High Throughput Proliferation (HTP) assays was performed as follows: Exponentially growing 647V cells were plated, in triplicate, in 384-well plates at the appropriate cell density in a final volume of 50 μl. Cells were incubated in the presence of increasing concentrations of compound. Viable cell number was determined at day 7 by addition of 35 μl CellTiter-Glo to each well of the plate, incubated in the dark for 30 minutes, and read on a PerkinElmer EnVision instrument to enumerate the number of cells.

The target of a further assay is T2, EP300 (P300(1048-1664)) (Homo sapiens, UniProt Q09472).
T2 construct: P300(1048-1664)
T2 sequence (Q09472 1048-1664): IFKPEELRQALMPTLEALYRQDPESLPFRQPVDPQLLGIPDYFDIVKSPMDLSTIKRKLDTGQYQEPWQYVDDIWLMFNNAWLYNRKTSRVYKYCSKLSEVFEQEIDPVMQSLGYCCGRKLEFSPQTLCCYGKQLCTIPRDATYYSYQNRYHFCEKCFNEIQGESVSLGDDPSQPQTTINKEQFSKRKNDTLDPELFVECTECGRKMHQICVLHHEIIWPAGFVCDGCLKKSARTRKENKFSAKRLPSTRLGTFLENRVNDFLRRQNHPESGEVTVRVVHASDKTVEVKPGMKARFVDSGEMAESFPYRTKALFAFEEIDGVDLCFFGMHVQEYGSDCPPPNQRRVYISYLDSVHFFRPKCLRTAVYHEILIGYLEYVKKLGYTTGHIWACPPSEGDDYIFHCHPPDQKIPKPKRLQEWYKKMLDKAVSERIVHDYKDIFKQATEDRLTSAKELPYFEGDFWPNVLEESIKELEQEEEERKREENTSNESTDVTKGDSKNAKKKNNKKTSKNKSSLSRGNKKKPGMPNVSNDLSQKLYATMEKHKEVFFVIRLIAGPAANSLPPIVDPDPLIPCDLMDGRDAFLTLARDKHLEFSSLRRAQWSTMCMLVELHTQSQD
The assay is described as follows: Biochemical assay for EP300, SAMDI. The following applies: EP300, SAMDI; read-out: EP300 Biochemistry IC50. From the text:
The following example describes materials and methods relating to a biochemical assay for EP300. IC50 values (micromolar (μM)) are summarized in Table 1, Table 2, and Table 3 under the column labeled: “EP300 Biochemistry IC50 (micromolar).”

Assay [1] deals with H3K18Ac in HB-CLS-2 cells. The assay is described as follows: H3K18AC in-cell western (ICW) assay. In kind it is cell-based. The conditions noted are these: H3K18Ac in-cell western; read-out: CREBBP ICW IC50. A digest of the protocol:
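In-cell western: after methanol fixation, blocking, overnight 4° C anti-H3K18Ac staining, then 800CW secondary plus DRAQ5 for DNA content, integrated intensities were scanned at 800 and 700 nm. Before this, compound exposure lasted 2 hr at 37° C in HB-CLS-2 cells plated 16–24 hours earlier. Values expressed as IC50 (μM).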

Take `CCn1ncc(CN(C)C(=O)c2nc(-c3cc4c(C)[nH]nc4cc3Cl)nc3ccc(Cl)cc23)c1C` [Compound 1]: the IC50 on CREBBP (1084-1701) was 3.3 nM; in the assay with 647V cells (Homo sapiens, 647-V), 20 nM; on EP300 (P300(1048-1664)) it was 2.1 nM; in assay [1], 27 nM.
Take `CCn1ncc(CN(C)C(=O)c2nc(-c3ccc(OCCCNC)c(C)c3Cl)nc3ccc(Cl)cc23)c1C` [Compound 2]: the IC50 was found to be 22 nM at CREBBP (1084-1701); 17 nM in the assay with 647V cells (Homo sapiens, 647-V); 5 nM at EP300 (P300(1048-1664)); 34 nM in assay [1].
Regarding `CCn1ncc(CN(C)C(=O)c2nc(-c3cc(Cl)c4nc[nH]c4c3)nc3ccc(COC)cc23)c1C` [Compound 4], the IC50 at CREBBP (1084-1701) came to 12 nM; with 647V cells (Homo sapiens, 647-V), 37 nM; at EP300 (P300(1048-1664)), 3.7 nM; in assay [1] it was 57 nM.
On the same counts, the results for `CCn1ncc(CN(C)C(=O)c2nc(-c3cc(NCCNC)cc(OC)c3)nc3ccc(Cl)cc23)c1C` [Compound 5] are 16 nM, 35 nM, 11 nM and 60 nM.
With `CCn1ncc(CN(C)C(=O)c2nc(-c3cc4n[nH]cc4cc3Cl)nc3ccc(Cl)cc23)c1C` [Compound 7], the IC50 stood at 9.5 nM on CREBBP (1084-1701); 66 nM in the assay on 647V cells (Homo sapiens, 647-V); 5.3 nM on EP300 (P300(1048-1664)); 77 nM in assay [1].
With `CCn1ncc(CN(C)C(=O)c2nc(-c3cc(C)nc(NCCNC)c3)nc3ccc(Cl)cc23)c1C` [Compound 8], the IC50 on CREBBP (1084-1701) was determined as 33 nM; with 647V cells (Homo sapiens, 647-V), 42 nM; on EP300 (P300(1048-1664)), 26 nM; in assay [1], 78 nM.
On the same counts, the results for `CCn1ncc(CN(C)C(=O)c2nc(-c3cc(C#N)cc(NCCNC)c3)nc3ccc(Cl)cc23)c1C` [Compound 9] are 15 nM, 51 nM, 11 nM and 90 nM.
For `CCn1ncc(CN(C)C(=O)c2nc(-c3cc4[nH]ncc4cc3C)nc3ccc(Cl)cc23)c1C` [Compound 10] the same measures were 22 nM, 77 nM, 8.4 nM and 93 nM.
Take `CCn1ncc(CN(C)C(=O)c2nc(-c3cc(Cl)cc(NCCNC)c3)nc3ccc(Cl)cc23)c1C` [Compound 12]: the IC50 was determined as 13 nM at CREBBP (1084-1701); 32 nM with 647V cells (Homo sapiens, 647-V); 3.5 nM on EP300 (P300(1048-1664)); 110 nM in assay [1].
Consider `CCn1ncc(CN(C)C(=O)c2nc(-c3cc(C)cc(NC(=O)CNC)c3)nc3ccc(Cl)cc23)c1C` [Compound 13], for which the IC50 on CREBBP (1084-1701) came to 10 nM; with 647V cells (Homo sapiens, 647-V), 110 nM; on EP300 (P300(1048-1664)), 7.7 nM; in assay [1], 120 nM.
Consider `CCn1ncc(CN(C)C(=O)c2nc(-c3cc(Cl)cc(NCCNC)c3)nc3ccc(Cl)cc23)c1C` [Compound 14], for which the IC50 on CREBBP (1084-1701) came out at 14 nM; in the assay on 647V cells, 39 nM; at EP300 (P300(1048-1664)), 2.9 nM; in assay [1], 140 nM.
For the compound `CCn1ncc(CN(C)C(=O)c2nc(-c3ccc(OCC(O)CN4CCCC4)cc3Cl)nc3ccc(Cl)cc23)c1C` (stereo not drawn) [Compound 15], the IC50 stood at 28 nM at CREBBP (1084-1701); 64 nM in the assay with 647V cells (Homo sapiens, 647-V); 12 nM on EP300 (P300(1048-1664)); 150 nM in assay [1].
For `CCn1ncc(CN(C)C(=O)c2nc(-c3cc(N)cc(Cl)c3)nc3ccc(Cl)cc23)c1C` [Compound 16] the same measures were 4.6 nM, 160 nM, 7.4 nM and 150 nM.
On the same counts, the results for `CCn1ncc(CN(C)C(=O)c2nc(-c3cc4[nH]cnc4cc3C)nc3ccc(Cl)cc23)c1C` [Compound 17] are 60 nM, 130 nM, 120 nM and 170 nM.
Turning to `CCn1ncc(CN(C)C(=O)c2nc(-c3cc(C(=O)NC)n(C)n3)nc3ccc(Cl)cc23)c1C` [Compound 18], the IC50 at CREBBP (1084-1701) was determined as 23 nM; in the assay with 647V cells (Homo sapiens, 647-V), 220 nM; at EP300 (P300(1048-1664)), 10 nM; in assay [1], 170 nM.
On the same counts, the results for `CCn1ncc(CN(C)C(=O)c2nc(-c3ccc(OCC(O)CNC)cc3Cl)nc3ccc(Cl)cc23)c1C` (stereo not drawn) [Compound 20] are 27 nM, 71 nM, 10 nM and 180 nM.
Consider `CCn1ncc(CN(C)C(=O)c2nc(-c3ccc(OCCNC)c(Cl)c3)nc3ccc(Cl)cc23)c1C` [Compound 21], for which the IC50 on CREBBP (1084-1701) stood at 31 nM; in the assay with 647V cells (Homo sapiens, 647-V), 120 nM; on EP300 (P300(1048-1664)), 48 nM; in assay [1] it was 180 nM.
With `CCn1ncc(CN(C)C(=O)c2nc(-c3cc(Cl)c4c[nH]nc4c3)nc3ccc(COC)cc23)c1C` [Compound 22], the IC50 on CREBBP (1084-1701) is 14 nM; in the assay on 647V cells (Homo sapiens, 647-V), 210 nM; at EP300 (P300(1048-1664)) it was 14 nM; in assay [1], 180 nM.
Take `CCn1ncc(CN(C)C(=O)c2nc(-c3ccc(OCCNC)cc3Cl)nc3ccc(Cl)cc23)c1C` [Compound 23]: the IC50 came to 46 nM on CREBBP (1084-1701); 82 nM with 647V cells (Homo sapiens, 647-V); 50 nM on EP300 (P300(1048-1664)); 190 nM in assay [1].
On the same counts, the results for `CCn1ncc(CN(C)C(=O)c2nc(-c3ccc(OCC(O)CNC)c(Cl)c3)nc3ccc(Cl)cc23)c1C` (stereo not drawn) [Compound 25] are 27 nM, 76 nM, 33 nM and 210 nM.
On the same counts, the results for `CCn1ncc(CN(C)C(=O)c2nc(-c3cc4nc[nH]c4cc3Cl)nc3ccc(Cl)cc23)c1C` [Compound 26] are 84 nM, 130 nM, 170 nM and 210 nM.
On the same counts, the results for `CCn1ncc(CN(C)C(=O)c2nc(-c3ccc(OCC(O)CN4CCCC4)c(Cl)c3)nc3ccc(Cl)cc23)c1C` (stereo not drawn) [Compound 27] are 39 nM, 110 nM, 20 nM and 220 nM.
Consider `CCn1ncc(CN(C)C(=O)c2nc(-c3cc(C)nc(N)c3)nc3ccc(Cl)cc23)c1C` [Compound 28], for which the IC50 at CREBBP (1084-1701) turned out to be 29 nM; in the assay with 647V cells (Homo sapiens, 647-V) it was 180 nM; at EP300 (P300(1048-1664)), 92 nM; in assay [1], 220 nM.
On to `CCn1ncc(CN(C)C(=O)c2cc(-c3ccc(NCCNC)cn3)nc3ccc(Cl)cc23)c1C` [Compound 30], for which the IC50 on CREBBP (1084-1701) was 56 nM; in the assay with 647V cells (Homo sapiens, 647-V), 310 nM; on EP300 (P300(1048-1664)), 12 nM; in assay [1], 230 nM.
Take `CCn1ncc(CN(C)C(=O)c2nc(-c3ccc(OCCCNC(C)C)c(C)c3)nc3ccc(Cl)cc23)c1C` [Compound 31]: the IC50 is 28 nM on CREBBP (1084-1701); 130 nM in the assay on 647V cells (Homo sapiens, 647-V); 140 nM at EP300 (P300(1048-1664)); 260 nM in assay [1].
In the case of `CCn1ncc(CN(C)C(=O)c2nc(-c3ccc(OCCO)cc3Cl)nc3ccc(Cl)cc23)c1C` [Compound 32], the IC50 at CREBBP (1084-1701) is 150 nM; in the assay on 647V cells (Homo sapiens, 647-V), 150 nM; at EP300 (P300(1048-1664)), 330 nM; in assay [1] it was 270 nM.
For the compound `CCn1ncc(CN(C)C(=O)c2nc(-c3ccc(OCCCNC)cc3C)nc3ccc(Cl)cc23)c1C` [Compound 33], the IC50 on CREBBP (1084-1701) was determined as 68 nM; in the assay with 647V cells (Homo sapiens, 647-V), 180 nM; at EP300 (P300(1048-1664)) it was 53 nM; in assay [1] it was 270 nM.
